Test [1] addresses T1, SH2 domain from the Grb4 adaptor protein (Mus musculus, UniProt O55033).
T1 sequence (O55033 285-379 limits assumed): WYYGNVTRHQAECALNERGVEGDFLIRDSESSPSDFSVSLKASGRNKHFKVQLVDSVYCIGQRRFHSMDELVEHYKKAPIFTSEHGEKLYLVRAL
The settings on record: tyrosine-phosphorylated state; read-out: Affinity for the SH2 domain from Grb4; cited from earlier work.

Another test addresses anti-c-myc antibody 9E10. The settings on record: read-out: Affinity for anti-c-myc antibody 9E10; cited from earlier work.
The target of another test is α-thrombin (Homo sapiens, UniProt P00734). In words: Amidolytic assay of CaM-DTI and CaM-DTI2 (S-2238 or S-2366). The test is classed as biochemical. More on the design: with a certain fixed concentration of α-thrombin (˜0.3 nM). The following applies: Ca2+ up to 5 mM.

No end group written: not given here.

Experimental for α-thrombin: Kinetics of thrombin-catalyzed hydrolysis of the chromogenic substrates S-2238 or S-2366 (Chromogenix) was followed by absorbance at 405 nm on a SpectraMax plate reader thermostated at 37° C. The concentration of the substrate was 400 μM. Inhibition assays were performed in the clotting buffer with a certain fixed concentration of α-thrombin (˜0.3 nM) such that linear progress curves were observed within at least 15 min in the absence of the inhibition. The total volume of the reaction mixture was 200 μl. […] Kinetics data from initial rate experiments were used to construct Lineweaver-Burke plot; i.e. the relationship of (substrate concentration)^−1 versus (initial velocity)^−1 which were analysed by linear regression with MicroCal Origin 6.0 program (MicroCal, Md.). The Ki values of the inhibitors were determined using the equation Ki=[I]/{(SLo/SL1)−1}, where [I] is the inhibitor concentration, SLo is the slope of the reaction in the absence of inhibitors, and SL1 is the slope of the reaction in the presence of the inhibitor.
Kinetics of thrombin-catalyzed hydrolysis of the chromogenic substrate S-2366 (Chromogenix) was followed by absorbance at 405 nm on a SpectraMax plate reader at 25° C. The concentration of the substrate S-2366 was 50 μM. Inhibition assays were performed in the clotting buffer with a certain fixed concentration of α-thrombin (˜0.6 nM). […]

Regarding “CPHYEKVSG [ephrinB2301-309, peptide derived from the ephrinB cytoplasmic tail]”, the Kd in test [1] is 200 nM.

As to EQKLISEEDL [c-myc sequence], the Kd on anti-c-myc antibody 9E10 was ~500 nM.

“Ile-Arg-Phe-Thr-Asp-Gly-Glu-Gly-(CamCKK)-Asp-Phe-Glu-Glu-Ile-Pro-Glu-Glu-Tyr-Leu-Gln [CaM-DTI2]”: in the test with α-thrombin, the “Effect of Ca2+ on inhibition of the thrombin active site” value is on record as “not affected”.

The values above are taken from patent US8063018B2, “Bivalent thrombin binding molecules comprising linkers” (National Research Council of Canada, priority 2004, dated 2011).
